Data from patent US20230174660A1, “USE OF A MULTIMERIC ANTI-DR5 BINDING MOLECULE IN COMBINATION WITH A CANCER THERAPY FOR TREATING CANCER” (IGM Biosciences, Inc., priority 2020, published 2023).

Columns and labels:
[1] = system: DR5 agonist-resistant MDA-MB-231 cells; test: Cell Titer Glo viability, Mab A + SMAC mimetic on DR5 agonist-resistant tumor cells (Example 8); format: cell-based
[2] = system: A2058; test: Cell Titer Glo viability, Mab A + birinapant (Example 10); format: cell-based; conditions: A2058 (Melanoma)
Procedure: (§1) Cell viability curves for combinations of anti-DR5 IgM Mab A with birinapant on A2058, BT-20, DV-90, ES-2, HCC15, HCT 116, HT 1080, KYSE 410, MEWO, OVCAR-5, SK-LU-1, SK-MEL-5, SNU-1, SW780, SW1353, and T24 are shown in FIGS. 19A, 19C, 19E, 19G, 19I, 19K, 19M, 19O, 19Q, 19S, 19U, 19W, 19Y, 19AA, 19AC, and 19AE, respectively. Synergy was determined as described in earlier examples.

[3] = system: BT-20; test: as above; format: cell-based; conditions: BT-20 (TNBC)
Procedure: as §1

[4] = system: ES-2; test: as above; format: cell-based; conditions: ES-2 (Ovarian)
Procedure: as §1

[5] = system: HCC15; test: as above; format: cell-based; conditions: HCC15 (Lung)
Procedure: as §1

[6] = system: HCT 116; test: as above; format: cell-based; conditions: HCT 116 (Colorectal)
Procedure: as §1

[7] = system: HT 1080; test: as above; format: cell-based; conditions: HT 1080 (Fibrosarcoma)
Procedure: as §1

[8] = system: KYSE 410; test: as above; format: cell-based; conditions: KYSE 410 (Esophageal)
Procedure: as §1

[9] = system: MEWO; test: as above; format: cell-based; conditions: MEWO (Melanoma)
Procedure: as §1

[10] = system: OVCAR-5; test: as above; format: cell-based; conditions: OVCAR-5 (Ovarian)
Procedure: as §1

[11] = system: SNU-1; test: as above; format: cell-based; conditions: SNU-1 (Gastric)
Procedure: as §1

[12] = system: SW1353; test: as above; format: cell-based; conditions: SW1353 (Chondrosarcoma)
Procedure: as §1

[13] = system: SW780; test: as above; format: cell-based; conditions: SW780 (Bladder)
Procedure: as §1

[14] = system: T24; test: as above; format: cell-based; conditions: T24 (Bladder)
Procedure: as §1

[15] = system: 8305C; test: Cell Titer Glo viability, Mab A + birinapant, head and neck tumor cell lines (Example 12); format: cell-based; conditions: 8305C head and neck cancer cell line
Procedure: (§2) Exemplary cell viability curves for combinations of anti-DR5 IgM Mab A with birinapant on Detroit 562 and KYSE270 are shown in FIGS. 22A and 22C, respectively. Synergy was determined as described in earlier examples. […] The Average Bliss synergy scores for combinations of Mab A and birinapant on the various head and neck tumor cell lines are shown in Table 14.

[16] = system: 8505C; test: as above; format: cell-based; conditions: 8505C head and neck cancer cell line
Procedure: as §2

[17] = system: A253; test: as above; format: cell-based; conditions: A253 head and neck cancer cell line
Procedure: as §2

[18] = system: Detroit 562; test: as above; format: cell-based; conditions: Detroit 562 head and neck cancer cell line
Procedure: as §2

[19] = system: FaDu; test: as above; format: cell-based; conditions: FaDu head and neck cancer cell line
Procedure: as §2

[20] = system: KYSE-70; test: as above; format: cell-based; conditions: KYSE-70 head and neck cancer cell line
Procedure: as §2

[21] = system: KYSE150; test: as above; format: cell-based; conditions: KYSE150 head and neck cancer cell line
Procedure: as §2

[22] = system: KYSE270; test: as above; format: cell-based; conditions: KYSE270 head and neck cancer cell line
Procedure: as §2

[23] = system: KYSE410; test: as above; format: cell-based; conditions: KYSE410 head and neck cancer cell line
Procedure: as §2

[24] = system: OE19; test: as above; format: cell-based; conditions: OE19 head and neck cancer cell line
Procedure: as §2

[25] = system: TE-1; test: as above; format: cell-based; conditions: TE-1 head and neck cancer cell line
Procedure: as §2

[26] = system: EBC-1; test: Cell Titer Glo viability, Mab A + SMAC mimetics (Example 13); format: cell-based; conditions: SMAC mimetic in combination with Mab A
Procedure: (§3) Synergy was determined as described in earlier examples. The average Bliss synergy scores for combinations of Mab A and SMAC mimetic on the various tumor cell lines are shown in Table 15.

[27] = system: HCT 116; test: as above; format: cell-based; conditions: SMAC mimetic in combination with Mab A
Procedure: as §3

[28] = system: HT 1080; test: as above; format: cell-based; conditions: SMAC mimetic in combination with Mab A
Procedure: as §3

[29] = system: OVCAR-4; test: as above; format: cell-based; conditions: SMAC mimetic in combination with Mab A
Procedure: as §3

[30] = system: SK-MEL-5; test: as above; format: cell-based; conditions: SMAC mimetic in combination with Mab A
Procedure: as §3

[31] = system: SW1353; test: as above; format: cell-based; conditions: SMAC mimetic in combination with Mab A
Procedure: as §3

[32] = system: EBC-1 tumor cells; test: EBC-1 non-small cell lung cancer (NSCLC) model (Example 11); format: in vivo, mice; conditions: birinapant 30 mg/kg i.p. every 3 days, alone or with Mab A 5 mg/kg i.v.; n=10 animals/group
Text: 3×10^6 EBC-1 tumor cells were implanted subcutaneously in the flanks of female BALB/c nude mice.

[33] = system: SA3840 tumor fragments; test: SA3840 osteosarcoma PDX model (Example 11); format: in vivo, mice; conditions: birinapant 30 mg/kg i.p., alone or with Mab A 5 mg/kg i.v.; n=5 animals/group
[34] = system: MDA-MB-231 tumor cells; test: Cell Titer Glo viability, Mab A + SMAC mimetic (Example 7); conditions: MDA-MB-231 cells; 72 hours

## CC[C@H](NC(=O)[C@H](C)NC)C(=O)N1C[C@@H](O)C[C@H]1Cc1c(-c2[nH]c3cc(F)ccc3c2C[C@@H]2C[C@H](O)CN2C(=O)[C@H](CC)NC(=O)[C@H](C)NC)[nH]c2cc(F)ccc12 [birinapant, Birinapant]
[1]
  single agent cytotoxicity (cell viability curves): little to no cytotoxicity
[2]
  Avg Bliss score: 49
[3]
  Avg Bliss score: 4
[4]
  Avg Bliss score: 19
[5]
  Avg Bliss score: 41
[6]
  Avg Bliss score: 36
[7]
  Avg Bliss score: 45
[8]
  Avg Bliss score: 42
[9]
  Avg Bliss score: 26
[10]
  Avg Bliss score: 17
[11]
  Avg Bliss score: 39
[12]
  Avg Bliss score: 18
[13]
  Avg Bliss score: 35
[14]
  Avg Bliss score: 38
[15]
  Average Bliss score: 27
[16]
  Average Bliss score: 10
[17]
  Average Bliss score: 26
[18]
  Average Bliss score: 36
[19]
  Average Bliss score: 16
[20]
  Average Bliss score: 25
[21]
  Average Bliss score: 0.2
[22]
  Average Bliss score: 15
[23]
  Average Bliss score: 35
[24]
  Average Bliss score: 17
[25]
  Average Bliss score: 29
[26]
  Average Bliss score: 39
[27]
  Average Bliss score: 31
[28]
  Average Bliss score: 30
[29]
  Average Bliss score: 14
[30]
  Average Bliss score: 14
[31]
  Average Bliss score: −0.6
[32]
  mice that missed doses due to body weight loss: 3 mice
[33]
  animals that missed doses due to body weight loss: 1 animal
[34]
  single agent cytotoxicity (cell viability curves): little to no cytotoxicity
